Measurements published in US12304890B2, “R-type pyridyloxycarboxylic acid, salt and ester derivative thereof, and preparation method therefor, and herbicidal composition and application thereof” (Qingdao Kingagroot Chemical Compound Co., Ltd., priority 2018, dated 2025).

Key:
Assay type in all cases: in vivo
[1] = system: Monocotyledonous and dicotyledonous weed seeds and main crop seeds; test: Post-emergence test experiment, other weeds and crops (Table 4, 1000 g a.i./ha); conditions: 3 weeks in greenhouse, fresh weight inhibition
In short: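 Weed and crop seeds (wheat, corn, rice, soybean, cotton, oilseed, millet, sorghum) sown in soil pots in a greenhouse and sprayed at 2-3 leaf stage, 2 weeks after sowing. Compound in acetone/tween-80 with methyl oleate concentrate (1.5 L/ha) as synergist. Effect recorded as fresh-weight growth inhibition rate.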

[2] = system: Digitaria sanguinalis; test: Post-emergence test experiment, Digitaria sanguinalis; conditions: 1000 g a.i./ha, 3 weeks in greenhouse, fresh weight inhibition
Experimental: (§1) The above described growth inhibition rate is fresh weight inhibition rate.
(§2) Post-emergence test experiment: Monocotyledonous and dicotyledonous weed seeds and main crop seeds (i. e. wheat, corn, rice, soybean, cotton, oilseed, millet and sorghum.) were put into a plastic pot loaded with soil. Then covered with 0.5-2 cm soil, the seeds were allowed to grow in good greenhouse environment. The test plants were treated at 2-3 leaf stage 2 weeks after sowing. The test compounds of the invention were dissolved with acetone respectively, then added with tween-80, and using 1.5 liters per hectare of an emulsible concentrate of methyl oleate as a synergist, and diluted by certain amount of water to certain concentration. The solution was sprayed to the plants with a sprayer. Then the plants were cultured for 3 weeks in the greenhouse, and the experiment result of weed controlling effect was listed in tables 4-5.

[3] = system: Echinochloa crusgalli; test: Post-emergence test experiment, Echinochloa crusgalli; conditions: 1000 g a.i./ha, 3 weeks in greenhouse, fresh weight inhibition
Experimental: as §1, §2

SMILES | Activity level (growth inhibition rate), Abutilon theophrasti Medic. [1] | Activity level (growth inhibition rate), Galium aparine [1] | Activity level (growth inhibition rate), Monochoria Vaginalis [1] | Activity level (growth inhibition rate), Digitaria sanguinalis [2] | Activity level (growth inhibition rate), Echinochloa crusgalli [3]
CC(C)OC(=O)[C@@H](C)Oc1nc(F)c(Cl)c(N)c1Cl [Compound 2-75] | 5 (Level 5: the growth inhibition rate is greater than 85%) | 5 (Level 5: the growth inhibition rate is greater than 85%) | 5 (Level 5: the growth inhibition rate is greater than 85%) | 5 (Level 5: the growth inhibition rate is greater than 85%) | 5 (Level 5: the growth inhibition rate is greater than 85%)
CC(C)SC(=O)[C@@H](C)Oc1nc(F)c(Cl)c(N)c1Cl [Compound 2-76] | 5 (Level 5: the growth inhibition rate is greater than 85%) | 5 (Level 5: the growth inhibition rate is greater than 85%) | 5 (Level 5: the growth inhibition rate is greater than 85%) | 5 (Level 5: the growth inhibition rate is greater than 85%) | 5 (Level 5: the growth inhibition rate is greater than 85%)
CC(C)COC(=O)[C@@H](C)Oc1nc(F)c(Cl)c(N)c1Cl [Compound 2-79] | 5 (Level 5: the growth inhibition rate is greater than 85%) | 5 (Level 5: the growth inhibition rate is greater than 85%) | 5 (Level 5: the growth inhibition rate is greater than 85%) | 5 (Level 5: the growth inhibition rate is greater than 85%) | 5 (Level 5: the growth inhibition rate is greater than 85%)
CC(C)CSC(=O)[C@@H](C)Oc1nc(F)c(Cl)c(N)c1Cl [Compound 2-80] | 5 (Level 5: the growth inhibition rate is greater than 85%) | 5 (Level 5: the growth inhibition rate is greater than 85%) | 5 (Level 5: the growth inhibition rate is greater than 85%) | 5 (Level 5: the growth inhibition rate is greater than 85%) | 5 (Level 5: the growth inhibition rate is greater than 85%)
CCC(C)OC(=O)[C@@H](C)Oc1nc(F)c(Cl)c(N)c1Cl (some centres unmarked) [Compound 2-81] | 5 (Level 5: the growth inhibition rate is greater than 85%) | 5 (Level 5: the growth inhibition rate is greater than 85%) | 5 (Level 5: the growth inhibition rate is greater than 85%) | 5 (Level 5: the growth inhibition rate is greater than 85%) | 5 (Level 5: the growth inhibition rate is greater than 85%)
CCC(C)SC(=O)[C@@H](C)Oc1nc(F)c(Cl)c(N)c1Cl (some centres unmarked) [Compound 2-82] | 5 (Level 5: the growth inhibition rate is greater than 85%) | 5 (Level 5: the growth inhibition rate is greater than 85%) | 5 (Level 5: the growth inhibition rate is greater than 85%) | 5 (Level 5: the growth inhibition rate is greater than 85%) | 5 (Level 5: the growth inhibition rate is greater than 85%)
C[C@@H](Oc1nc(F)c(Cl)c(N)c1Cl)C(=O)OC(C)(C)C [Compound 2-83] | 5 (Level 5: the growth inhibition rate is greater than 85%) | 5 (Level 5: the growth inhibition rate is greater than 85%) | 5 (Level 5: the growth inhibition rate is greater than 85%) | 5 (Level 5: the growth inhibition rate is greater than 85%) | 5 (Level 5: the growth inhibition rate is greater than 85%)
C[C@@H](Oc1nc(F)c(Cl)c(N)c1Cl)C(=O)SC(C)(C)C [Compound 2-84] | 5 (Level 5: the growth inhibition rate is greater than 85%) | 5 (Level 5: the growth inhibition rate is greater than 85%) | 5 (Level 5: the growth inhibition rate is greater than 85%) | 5 (Level 5: the growth inhibition rate is greater than 85%) | 5 (Level 5: the growth inhibition rate is greater than 85%)
CCCCCOC(=O)[C@@H](C)Oc1nc(F)c(Cl)c(N)c1Cl [Compound 2-85] | 5 (Level 5: the growth inhibition rate is greater than 85%) | 5 (Level 5: the growth inhibition rate is greater than 85%) | 5 (Level 5: the growth inhibition rate is greater than 85%) | 5 (Level 5: the growth inhibition rate is greater than 85%) | 5 (Level 5: the growth inhibition rate is greater than 85%)
CCC(C)COC(=O)[C@@H](C)Oc1nc(F)c(Cl)c(N)c1Cl (some centres unmarked) [Compound 2-87] | 5 (Level 5: the growth inhibition rate is greater than 85%) | 5 (Level 5: the growth inhibition rate is greater than 85%) | 5 (Level 5: the growth inhibition rate is greater than 85%) | 5 (Level 5: the growth inhibition rate is greater than 85%) | 5 (Level 5: the growth inhibition rate is greater than 85%)
CCC(C)CSC(=O)[C@@H](C)Oc1nc(F)c(Cl)c(N)c1Cl (some centres unmarked) [Compound 2-88] | 5 (Level 5: the growth inhibition rate is greater than 85%) | 5 (Level 5: the growth inhibition rate is greater than 85%) | 5 (Level 5: the growth inhibition rate is greater than 85%) | 5 (Level 5: the growth inhibition rate is greater than 85%) | 5 (Level 5: the growth inhibition rate is greater than 85%)
CC(C)CCOC(=O)[C@@H](C)Oc1nc(F)c(Cl)c(N)c1Cl [Compound 2-89] | 5 (Level 5: the growth inhibition rate is greater than 85%) | 5 (Level 5: the growth inhibition rate is greater than 85%) | 5 (Level 5: the growth inhibition rate is greater than 85%) | 5 (Level 5: the growth inhibition rate is greater than 85%) | 5 (Level 5: the growth inhibition rate is greater than 85%)
CC(C)CCSC(=O)[C@@H](C)Oc1nc(F)c(Cl)c(N)c1Cl [Compound 2-90] | 5 (Level 5: the growth inhibition rate is greater than 85%) | 5 (Level 5: the growth inhibition rate is greater than 85%) | 5 (Level 5: the growth inhibition rate is greater than 85%) | 5 (Level 5: the growth inhibition rate is greater than 85%) | 5 (Level 5: the growth inhibition rate is greater than 85%)
C[C@@H](Oc1nc(F)c(Cl)c(N)c1Cl)C(=O)OCC(C)(C)C [Compound 2-91] | 5 (Level 5: the growth inhibition rate is greater than 85%) | 5 (Level 5: the growth inhibition rate is greater than 85%) | 5 (Level 5: the growth inhibition rate is greater than 85%) | 5 (Level 5: the growth inhibition rate is greater than 85%) | 5 (Level 5: the growth inhibition rate is greater than 85%)
C[C@@H](Oc1nc(F)c(Cl)c(N)c1Cl)C(=O)SCC(C)(C)C [Compound 2-92] | 5 (Level 5: the growth inhibition rate is greater than 85%) | 5 (Level 5: the growth inhibition rate is greater than 85%) | 5 (Level 5: the growth inhibition rate is greater than 85%) | 5 (Level 5: the growth inhibition rate is greater than 85%) | 5 (Level 5: the growth inhibition rate is greater than 85%)
CCCC(C)OC(=O)[C@@H](C)Oc1nc(F)c(Cl)c(N)c1Cl (some centres unmarked) [Compound 2-93] | 5 (Level 5: the growth inhibition rate is greater than 85%) | 5 (Level 5: the growth inhibition rate is greater than 85%) | 5 (Level 5: the growth inhibition rate is greater than 85%) | 5 (Level 5: the growth inhibition rate is greater than 85%) | 5 (Level 5: the growth inhibition rate is greater than 85%)
